How the values were obtained:
[1] = target: prostaglandin I2 (PGI2) receptor (IP) (Homo sapiens, UniProt P43119); assay: IP receptor cAMP agonist assay (CHO-K1 cells); assay type: cell-based; conditions: Table 22; relative to treprostinil EC50 values; * partial agonists or ambiguous dose-response curves
Experimental: (§1) Cyclic AMP assay kit: Multiscreen™ TR-FRET cAMP 1.0 No Wash Assay Kit (Multispan, Inc.)
(§2) Cells were thawed from frozen cells and resuspended in assay buffer at desired concentrations. cAMP or Calcium assays were performed according to the manufacturer's protocol using Multiscreen™ TR-FRET cAMP 1.0 No Wash Assay Kit or Multiscreen™ Calcium 1.0 No Wash Kit.
(§3) Gas Cyclic AMP (cAMP) Assay: In agonist mode testing, cells were seeded in a 384-well plate at an appropriate density and then were treated with compounds and incubated at 37° C. for 20 minutes. The reaction was terminated by […] trFluor™ Eu-labeled cAMP and trFluor™ 650-labeled anti-cAMP antibody in lysis buffer. […] All testing wells contained 0.1% DMSO in the final concentrations.
(§4) Data in graphs are represented in Mean±SD. Dose-dependent responses were fitted with sigmoidal dose-response curves allowing variable slopes using GraphPad Prism version 6 (Graphpad Prism).
(§5) These studies used cell lines overexpressing either human IP, EP2 or DP1, or EP1 receptors, and following incubation with varying concentrations of compounds, cAMP levels were measured using Fluorescence Resonance Energy Transfer (FRET).

[2] = target: prostaglandin E2 (PGE2) receptor 2 (EP2) (Homo sapiens, UniProt P43116); assay: EP2 receptor cAMP agonist assay (HEK293T cells); assay type: cell-based; conditions: Table 22; relative to treprostinil EC50 values; * partial agonists or ambiguous dose-response curves
prostaglandin E2 (PGE2) receptor 2 (EP2), sequence (P43116 whole entry): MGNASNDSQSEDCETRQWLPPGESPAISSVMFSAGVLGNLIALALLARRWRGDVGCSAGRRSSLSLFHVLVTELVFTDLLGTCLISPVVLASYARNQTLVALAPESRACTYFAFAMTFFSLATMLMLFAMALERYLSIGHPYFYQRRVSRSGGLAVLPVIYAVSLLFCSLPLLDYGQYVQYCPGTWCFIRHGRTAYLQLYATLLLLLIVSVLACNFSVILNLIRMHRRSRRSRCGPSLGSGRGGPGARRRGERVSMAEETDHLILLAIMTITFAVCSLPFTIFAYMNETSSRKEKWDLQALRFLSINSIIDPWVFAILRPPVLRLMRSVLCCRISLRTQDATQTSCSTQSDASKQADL
Experimental: as §1, §2, §3, §4, §5

[3] = target: T1, prostaglandin D2 (PGD2) receptor 1 (DP1) (Homo sapiens, UniProt Q13258); assay: DP1 receptor cAMP agonist assay (HEK293T cells); assay type: cell-based; conditions: Table 22; relative to treprostinil EC50 values; * partial agonists or ambiguous dose-response curves
T1 sequence (Q13258 1-359): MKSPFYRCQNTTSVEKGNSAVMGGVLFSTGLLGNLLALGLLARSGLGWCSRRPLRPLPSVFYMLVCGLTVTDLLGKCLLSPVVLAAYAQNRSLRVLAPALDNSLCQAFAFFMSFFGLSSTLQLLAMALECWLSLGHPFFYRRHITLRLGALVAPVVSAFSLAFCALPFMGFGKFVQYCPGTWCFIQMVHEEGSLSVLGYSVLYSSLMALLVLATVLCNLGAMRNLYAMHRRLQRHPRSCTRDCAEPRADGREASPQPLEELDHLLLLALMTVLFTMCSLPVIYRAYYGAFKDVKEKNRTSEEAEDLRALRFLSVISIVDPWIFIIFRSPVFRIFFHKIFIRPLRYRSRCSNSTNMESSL
Experimental: as §1, §2, §3, §4, §5

[4] = Hydrolysis of prodrugs to treprostinil at pH 6, 7, 8 and 40 C; assay type: physicochemical
Description: Tables 24, 25 and 26 present data for hydrolysis of selected treprostinil prodrugs at pH 6, 7 and 8, respectively, and 40 C.

PGE2 receptor 1 (EP1) = target: T2, PGE2 receptor 1 (EP1) (Homo sapiens, UniProt P34995); assay: EP1 receptor calcium agonist assay (HEK293T cells); assay type: cell-based; conditions: Table 22; relative to treprostinil EC50 values; * partial agonists or ambiguous dose-response curves
T2 sequence (P34995 1-402): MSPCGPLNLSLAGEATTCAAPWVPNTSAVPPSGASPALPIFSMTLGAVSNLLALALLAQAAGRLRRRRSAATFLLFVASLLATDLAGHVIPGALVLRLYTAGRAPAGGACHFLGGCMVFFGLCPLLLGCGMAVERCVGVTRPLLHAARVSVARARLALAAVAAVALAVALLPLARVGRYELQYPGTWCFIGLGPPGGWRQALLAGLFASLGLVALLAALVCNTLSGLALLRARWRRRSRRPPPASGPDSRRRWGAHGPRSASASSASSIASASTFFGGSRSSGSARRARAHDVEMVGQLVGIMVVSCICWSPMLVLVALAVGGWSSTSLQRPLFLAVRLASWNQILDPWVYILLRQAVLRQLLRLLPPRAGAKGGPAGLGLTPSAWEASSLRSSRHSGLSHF
Experimental: Calcium assay kit: Multiscreen™ Calcium 1.0 No Wash Kit (Multispan, Inc., Cat #MSCA01-1)
• EP1 Calcium and DP1 cAMP Assays: HBSS plus 20 mM HEPES • EP2 and IP1 cAMP Assays: 1 mM IBMX in HBSS plus 20 mM HEPES Instruments: FlexStation III (Molecular Devices) and FLIPR 384 (Molecular Devices)
as §2
Calcium Assay: Cells were seeded in a 384-well plate at an appropriate density. The calcium assay was conducted according to the manufacturer's protocols (Multiscreen Calcium 1.0 No Wash Assay Kit). The calcium dye loading buffer was added to the cells and incubated for 1 hour at 37° C. For agonist mode, cells were injected with Iloprost control agonist or test compound by FLIPR and calcium mobilization was monitored for 180 seconds with compound injected into the wells at the 19th second. Fluorescent emissions were read at 525 nm with excitation at 490 nm in a FLIPR 384 instrument (Molecular Devices).
Calcium Assay: Calcium assay results are expressed as “RFU” as defined in figure below. Data are represented in Mean±SEM. Dose-response curves were fitted using “Sigmoidal dose-response (variable slope)” function in GraphPad Prism 6. EC50 values were calculated based on the fitted curves.
Prostaglandin receptor activity assessments with treprostinil and treprostinil analogues have been conducted, and a historical, positive control agonist for these receptors, iloprost (for IP, EP2 and EP1) or PGD2 (for DP1), was also included. These studies used cell lines overexpressing either human IP, EP2 or DP1, or EP1 receptors, and following incubation with varying concentrations of compounds, cAMP levels were measured using Fluorescence Resonance Energy Transfer (FRET). The 665/620 (acceptor/donor emission signals) ratio is inversely proportional to the concentration of cAMP.

prostaglandin I2 (PGI2) receptor (IP), sequence (P43119 whole entry): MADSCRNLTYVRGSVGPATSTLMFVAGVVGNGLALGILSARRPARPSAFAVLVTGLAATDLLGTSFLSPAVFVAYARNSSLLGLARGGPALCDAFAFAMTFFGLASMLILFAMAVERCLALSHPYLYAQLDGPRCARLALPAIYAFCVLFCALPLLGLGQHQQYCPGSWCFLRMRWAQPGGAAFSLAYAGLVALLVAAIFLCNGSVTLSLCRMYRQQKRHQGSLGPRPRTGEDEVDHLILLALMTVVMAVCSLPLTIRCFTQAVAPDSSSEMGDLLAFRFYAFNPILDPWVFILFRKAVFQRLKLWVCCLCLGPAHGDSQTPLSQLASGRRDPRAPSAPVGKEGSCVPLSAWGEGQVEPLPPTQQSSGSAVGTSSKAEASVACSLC

IP Relative to Tre [1] | EP2 Relative to Tre [2] [x*] | DP1 Relative to Tre [3] [x] | Hydrolysis to treprostinil, % Area, t = 1 week ([4]; pH 6, 40 C.) [% Area] | Hydrolysis to treprostinil, % Area, t = 2 weeks ([4]; pH 6, 40 C.) [% Area] | Hydrolysis to treprostinil, % Area, t = 3 weeks ([4]; pH 6, 40 C.) [% Area] | Hydrolysis to treprostinil, % Area, t = 1 week ([4]; pH 7, 40 C.) [% Area] | Hydrolysis to treprostinil, % Area, t = 2 weeks ([4]; pH 7, 40 C.) [% Area] | Hydrolysis to treprostinil, % Area, t = 3 weeks ([4]; pH 7, 40 C.) [% Area] | Hydrolysis to treprostinil, % Area, t = 1 week ([4]; pH 8, 40 C.) [% Area] | Hydrolysis to treprostinil, % Area, t = 2 weeks ([4]; pH 8, 40 C.) [% Area] | Hydrolysis to treprostinil, % Area, t = 3 weeks ([4]; pH 8, 40 C.) [% Area] | EP1 Relative to Tre (PGE2 receptor 1 (EP1)) [x*] | SMILES
1470x* | 236 | 1897 | 0.00 | 0.00 | 0.00 | 0.00 | 0.00 | 0.00 | 0.00 | 0.00 | 0.00 | – | CCCCCC(CCC1C(O)CC2Cc3c(cccc3OCC(=O)O)CC21)OC(=O)C12CC3CC(CC(C3)C1)C2 (stereo not shown) [Prodrug LXIX]
148x | 34 | 184 | 0.00 | 0.00 | 0.00 | 0.00 | 0.00 | 0.00 | 0.00 | 0.23 | 0.27 | – | CCCCCC(CCC1C(O)CC2Cc3c(cccc3OCC(=O)O)CC21)OC(=O)C(C)C (stereo not shown) [Prodrug LXVII]
162x* | 24 | 38 | 0.72 | 1.2 | 1.5 | 0.46 | 0.93 | 1.2 | 1.8 | 3.9 | 5.8 | 0.03 | CCCCCC(CCC1C(O)CC2Cc3c(cccc3OCC(=O)O)CC21)OC(=O)COc1ccc(OC(F)(F)F)cc1 (stereo not shown) [Prodrug LXIV]
